ChEMBL document CHEMBL1153638, “Prolonged stability by cyclization: Macrocyclic phosphino dipeptide isostere inhibitors of beta-secretase (BACE1)” (Bioorg Med Chem Lett, 2009)
Numbered stars: 1 amine (or outer) side, 2 acyl side, 3 side chain; on linkers, the order of the positions; unused ones are H or OH. Square brackets hold non-standard residues; d marks the D form. Peptide text beside a SMILES is read from it. X1 = CC(C)C[C@H](N[*:1])P(=O)(O)C[C@@H](C)C(=O)[*:2]

Key:
Beta-secretase 1 [1] = molecular target: T1, Beta-secretase 1 (Homo sapiens, UniProt P56817); experiment: Inhibition of full-domain of BACE1 expressed in […] cells; format: cell-based
T1 sequence (P56817 whole entry): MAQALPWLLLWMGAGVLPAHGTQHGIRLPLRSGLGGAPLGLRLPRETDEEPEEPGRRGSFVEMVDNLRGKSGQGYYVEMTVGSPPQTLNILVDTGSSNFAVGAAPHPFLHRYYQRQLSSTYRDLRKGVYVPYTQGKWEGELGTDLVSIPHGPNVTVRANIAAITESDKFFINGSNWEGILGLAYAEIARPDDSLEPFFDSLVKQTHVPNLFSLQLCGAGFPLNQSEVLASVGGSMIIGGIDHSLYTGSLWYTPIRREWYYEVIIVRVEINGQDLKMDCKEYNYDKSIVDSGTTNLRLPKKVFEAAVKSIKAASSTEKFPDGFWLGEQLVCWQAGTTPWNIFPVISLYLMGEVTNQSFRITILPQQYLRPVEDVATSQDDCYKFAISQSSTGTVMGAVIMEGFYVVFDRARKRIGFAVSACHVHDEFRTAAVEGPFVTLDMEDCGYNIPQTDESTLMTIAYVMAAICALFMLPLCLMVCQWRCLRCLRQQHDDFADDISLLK

[2] = Stability in human serum after 120 mins; format: ADME, cell-free; details: read-out: Stability
[3] = Stability in human serum assessed as half life; format: ADME, cell-free
[4] = Stability in human serum after 160 mins; format: ADME, cell-free; details: read-out: Stability
Beta-secretase 1 [5] = molecular target: T1, Beta-secretase 1; experiment: Inhibition of ectodomain of BACE1 secreted from […] cells by fluorimetry; format: cell-based

| SMILES | IC50 (Beta-secretase 1 [1]) [nM] | remaining at 2 h [2] [%] | half-life [3] [min] | remaining at 160 min [4] [%] | IC50 (Beta-secretase 1 [5]) [nM] |
| --- | --- | --- | --- | --- | --- |
| CC(C)C[C@H](NC(=O)[C@@H](N)CCC(=O)O)C(=O)N[C@@H](CC(=O)O)C(=O)N[C@@H](CC(C)C)P(=O)(O)C[C@@H](C)C(=O)N[C@H](C(=O)N[C@@H](CCC(=O)O)C(=O)N[C@@H](Cc1ccccc1)C(=O)O)C(C)C (H-ELD[X1]VEF-OH) | 12 | 20 | 14.8 |  |  |
| CC(CP(=O)(O)C1CCCCCC[C@H](NC(=O)[C@@H](N)CCC(=O)O)C(=O)N[C@@H](CC(=O)O)C(=O)N1)C(=O)N[C@H](C(=O)N[C@@H](CCC(=O)O)C(=O)N[C@@H](Cc1ccccc1)C(=O)O)C(C)C (mixture of isomers; form 1) |  |  | 43.9 | 20 | 47 |
| CC(CP(=O)(O)C1CCCCCC[C@H](NC(=O)[C@@H](N)CCC(=O)O)C(=O)N[C@@H](CC(=O)O)C(=O)N1)C(=O)N[C@H](C(=O)N[C@@H](CCC(=O)O)C(=O)N[C@@H](Cc1ccccc1)C(=O)O)C(C)C (mixture of isomers; form 2) |  |  |  |  | 320 |
| CC(CP(=O)(O)C1CCCCCC[C@H](NC(=O)[C@@H](N)CCC(=O)O)C(=O)N[C@@H](CC(=O)O)C(=O)N1)C(=O)N[C@H](C(=O)N[C@@H](CCC(=O)O)C(=O)N[C@@H](Cc1ccccc1)C(=O)O)C(C)C (mixture of isomers; form 3) |  |  |  |  | 522 |
| CC(CP(=O)(O)C1CCCCCC[C@H](NC(=O)[C@@H](N)CCC(=O)O)C(=O)N[C@@H](CC(=O)O)C(=O)N1)C(=O)N[C@H](C(=O)N[C@@H](CCC(=O)O)C(=O)N[C@@H](Cc1ccccc1)C(=O)O)C(C)C (mixture of isomers; form 4) |  |  |  |  | 808 |
